In ChEMBL document CHEMBL1201862, “PubChem BioAssay data set” (2004):
Several values for one entry are separate records, joined by “and”; a condition that tells them apart may be missing. Equal values may be shown once.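 Five concentrations, 48 hours, 96-well plates. Abbreviation: GI50, concentration required for 50% inhibition of growth.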 Activity calls are given as the source filed them. Cut-off read from the data, not from the text of the source: active = GI50 up to about 1.1 µM and inactive = higher.

Columns and labels:
Test in all cases: DTP human tumour cell line panel, 48 h
Hs-578T = tested on: Hs-578T
M14 = tested on: M14
UACC-62 = tested on: UACC-62
OVCAR-4 = tested on: OVCAR-4
A549 = tested on: A549
MCF7 = tested on: MCF7
DU-145 = tested on: DU-145
SNB-75 = tested on: SNB-75
MDA-N = tested on: MDA-N
786-0 = tested on: 786-0
SK-OV-3 = tested on: SK-OV-3
OVCAR-5 = tested on: OVCAR-5
T47D = tested on: T47D
ACHN = tested on: ACHN
NCI-H23 = tested on: NCI-H23
MDA-MB-231 = tested on: MDA-MB-231
KM12 = tested on: KM12
IGROV-1 = tested on: IGROV-1
SR = tested on: SR
LOX IMVI = tested on: LOX IMVI

Measured: GI50

COc1cc(C(=O)N(C(=S)OC23CC4CC(CC(C4)C2)C3)c2ccccc2)cc(OC)c1OC
inactive: Hs-578T 27.4 µM | M14 18.9 µM | UACC-62 22 µM | OVCAR-4 29.2 µM | A549 26.1 µM | MCF7 29.4 µM | DU-145 58.9 µM | SNB-75 66.1 µM | MDA-N 25.1 µM | 786-0 25.6 µM | SK-OV-3 25.8 µM | OVCAR-5 26.5 µM | T47D 43.2 µM | ACHN 29.6 µM | NCI-H23 28 µM | MDA-MB-231 33.4 µM | KM12 26.5 µM

COc1ccccc1NC(=S)NNC(=O)c1cc(-c2ccccc2)nc2ccccc12
inactive: Hs-578T 16.6 µM | M14 11.9 µM | UACC-62 5.86 µM | OVCAR-4 14.7 µM | A549 8.55 µM | DU-145 12.4 µM | SNB-75 18.7 µM | MDA-N 3.35 µM | 786-0 13.2 µM | SK-OV-3 16.9 µM | OVCAR-5 16.4 µM | T47D 15.9 µM | ACHN 17.7 µM | NCI-H23 13.9 µM | IGROV-1 13.9 µM | MDA-MB-231 10 µM | SR 1.74 µM | KM12 7.01 µM

COc1cnnc2c(C)c(-c3ccccc3)nn12
inactive: Hs-578T > 66.1 µM | M14 > 68.4 µM | UACC-62 42.4 µM | OVCAR-4 > 79.4 µM | A549 > 95.9 µM | LOX IMVI > 100 µM | MCF7 > 100 µM | DU-145 24.3 µM | SNB-75 20 µM | MDA-N 60.5 µM | 786-0 > 84.9 µM | SK-OV-3 47.6 µM | OVCAR-5 > 100 µM | T47D 2.6 µM | ACHN 68.9 µM | NCI-H23 > 100 µM | IGROV-1 38.4 µM | MDA-MB-231 > 61.9 µM | KM12 > 75.2 µM

Cc1c2c(OCCN3CCCCC3)nn(C)c(=O)c2c(C)n1-c1ccccc1
inactive: Hs-578T 54.1 µM | M14 18.5 µM | UACC-62 25.8 µM | OVCAR-4 63.8 µM | A549 43.6 µM | LOX IMVI 21.8 µM | MCF7 25.5 µM | DU-145 52.7 µM | SNB-75 19.5 µM | MDA-N 35.1 µM | 786-0 18.8 µM | SK-OV-3 56.1 µM | OVCAR-5 > 100 µM | T47D 41.2 µM | ACHN 28.5 µM | NCI-H23 28.1 µM | IGROV-1 70.5 µM | MDA-MB-231 32.4 µM | KM12 32.7 µM

O=[As](O)(O)c1ccc(/N=N/c2ccc([As](=O)(O)O)cc2)cc1
inactive: Hs-578T > 100 µM | M14 > 100 µM | UACC-62 > 100 µM | OVCAR-4 > 100 µM | A549 > 100 µM | LOX IMVI > 100 µM | DU-145 > 100 µM | MDA-N > 100 µM | 786-0 > 100 µM | OVCAR-5 > 100 µM | T47D > 100 µM | ACHN > 100 µM | NCI-H23 > 100 µM | IGROV-1 > 100 µM | MDA-MB-231 > 100 µM | SR > 100 µM | KM12 > 100 µM

Cc1cccc2c(=O)c3c(O)cc(O)cc3n(C)c12
inactive: Hs-578T 6.37 µM | M14 > 100 µM | UACC-62 > 100 µM | OVCAR-4 > 100 µM | A549 > 100 µM | LOX IMVI > 100 µM | MCF7 > 100 µM | DU-145 > 100 µM | SNB-75 85.7 µM | MDA-N > 100 µM | 786-0 > 100 µM | SK-OV-3 > 100 µM | OVCAR-5 > 100 µM | ACHN > 100 µM | NCI-H23 > 100 µM | IGROV-1 > 100 µM | MDA-MB-231 > 100 µM | SR > 100 µM | KM12 > 100 µM

CC(C)(CN1CCCCC1)C(=O)CC(SCCS(=O)(=O)O)c1ccc(Cl)c(Cl)c1 (stereo not given)
inactive: Hs-578T 2.8 µM | M14 1.92 µM | UACC-62 3.13 µM | OVCAR-4 3.52 µM | A549 5.98 µM | MCF7 3.46 µM | DU-145 11.4 µM | MDA-N 3.09 µM | 786-0 1.86 µM | SK-OV-3 29.7 µM | OVCAR-5 3.78 µM | ACHN 3.29 µM | NCI-H23 3.72 µM | IGROV-1 4.4 µM | MDA-MB-231 2.08 µM | SR 3.1 µM | KM12 5.71 µM

CC1=CC(=O)CC2(C)CCC(C(C)CC(=O)CC(C)C)CC12OO (stereo not given)
inactive: Hs-578T 46.9 µM and 28.4 µM | M14 16.5 µM and 17.9 µM | UACC-62 20.8 µM and 17.6 µM | OVCAR-4 27.7 µM and 16 µM | A549 16.7 µM and 15.4 µM | LOX IMVI 14.6 µM and 16.4 µM | MCF7 16.9 µM and 17.2 µM | DU-145 18 µM and 16 µM | MDA-N 18.8 µM and 18.1 µM | 786-0 10.1 µM and 13.1 µM | OVCAR-5 19.9 µM and 19.4 µM | ACHN 17.6 µM and 17.1 µM | NCI-H23 16.5 µM and 19.9 µM | IGROV-1 15 µM and 20 µM | MDA-MB-231 15.1 µM and 18.5 µM | SR 18.5 µM and 20.6 µM | KM12 15.6 µM and 16.9 µM

O=C1N/N=C\Nc2ccc(cc2)S(=O)(=O)c2ccc(cc2)/N=C\NNC1=O
inactive: Hs-578T > 100 µM | M14 > 100 µM | UACC-62 > 100 µM | OVCAR-4 > 100 µM | A549 > 100 µM | LOX IMVI > 100 µM | MCF7 > 100 µM | DU-145 > 100 µM | MDA-N > 100 µM | 786-0 > 100 µM | SK-OV-3 > 100 µM | OVCAR-5 > 100 µM | T47D > 100 µM | ACHN > 100 µM | NCI-H23 > 100 µM | IGROV-1 > 100 µM | MDA-MB-231 > 100 µM | KM12 > 100 µM

N=C1N(S(=O)(=O)c2ccccc2)[C@@H](Cc2ccccc2)[C@H](c2ccccc2)C1(c1ccccc1)c1ccccc1
inactive: Hs-578T > 100 µM | M14 > 100 µM | UACC-62 > 100 µM | OVCAR-4 > 100 µM | A549 > 100 µM | LOX IMVI > 100 µM | MCF7 > 100 µM | DU-145 > 100 µM | SNB-75 > 100 µM | MDA-N > 100 µM | 786-0 > 100 µM | SK-OV-3 > 100 µM | OVCAR-5 > 100 µM | ACHN > 100 µM | NCI-H23 41.4 µM | IGROV-1 > 100 µM | MDA-MB-231 > 100 µM | SR 41.3 µM | KM12 31.4 µM
